Read-outs that look alike come from different tables or passages of the source.
How the values were obtained:
[1] = system: TNFα; assay: Cot Monocyte TNFα Cell Based Assay
[2] = target: Human Cot (Homo sapiens (Human), UniProt P41279); assay: High Throughput Cot Biochemical Assay; settings: Cot HTRF (TR-FRET) biochemical assay
[3] = Homo sapiens, Monocyte, read-out: EC50 TNF, LPS-stimulated human monocytes, TNFα
[4] = read-out: EC50 TNF, LPS-stimulated human monocytes, TNFα

Human Cot, sequence (P41279 30-397): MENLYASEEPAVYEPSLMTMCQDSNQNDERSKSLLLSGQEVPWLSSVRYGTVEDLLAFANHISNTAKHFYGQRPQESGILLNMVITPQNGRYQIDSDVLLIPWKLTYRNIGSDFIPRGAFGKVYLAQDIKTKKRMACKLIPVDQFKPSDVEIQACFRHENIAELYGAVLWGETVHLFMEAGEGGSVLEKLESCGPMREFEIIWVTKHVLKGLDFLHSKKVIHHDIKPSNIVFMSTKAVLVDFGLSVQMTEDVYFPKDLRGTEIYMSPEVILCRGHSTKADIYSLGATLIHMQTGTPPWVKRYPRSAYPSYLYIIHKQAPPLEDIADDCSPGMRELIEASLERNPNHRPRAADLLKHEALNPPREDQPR

| SMILES | EC50 [1, 3] | IC50 ([2]; IC50 HTRF) | EC50 [1, 4] | IC50 ([2]; read-out: IC50 HTRF) |
| --- | --- | --- | --- | --- |
| CC(C)n1cc([C@@H](Nc2cc(Cl)c3ncc(C#N)c(N[C@@H](c4ccccc4)C(C)(C)O)c3c2)c2cccnc2)nn1 [Example 187, 8-chloro-4-(((S)-2-hydroxy-2-methyl-1-phenylpropyl)amino)-6-(((S)-(1-isopropyl-1H-1,2,3-triazol-4-yl)(pyridin-3-yl)methyl)amino)-quinoline-3-carbonitrile] | 2.11 µM | 0.067 µM |  |  |
| CC(C)(C)CNc1c(C#N)cnc2c(Cl)cc(N[C@H](c3cn(C4(C)CC4)nn3)c3cccc4cnccc34)cc12 [Example 564, (S)-8-chloro-6-((isoquinolin-5-yl(1-(1-methylcyclopropyl)-1H-1,2,3-triazol-4-yl)methyl)amino)-4-(neopentylamino)-quinoline-3-carbonitrile] | 0.069 µM | 0.003 µM |  |  |
| CC(C)(C)CNc1c(C#N)cnc2c(Cl)cc(N[C@H](c3cn(C4(C(F)F)CC4)nn3)c3cccc4c(=O)n(CC(F)F)ccc34)cc12 [Example 743, (S)-8-chloro-6-(((2-(2,2-difluoroethyl)-1-oxo-1,2-dihydroisoquinolin-5-yl)(1-(1-(difluoromethyl)cyclopropyl)-1H-1,2,3-triazol-4-yl)methyl)amino)-4-(neopentylamino)quinoline-3-carbonitrile] | 0.116 µM | 0.005 µM |  |  |
| Cc1nc(F)ccc1[C@H](Nc1cc(Cl)c2ncc(C#N)c(NCC(C)(C)C)c2c1)c1cn(C2(C)COC2)nn1 [Example 759, (S)-8-chloro-6-(((6-fluoro-2-methylpyridin-3-yl)(1-(3-methyloxetan-3-yl)-1H-1,2,3-triazol-4-yl)methyl)amino)-4-(neopentylamino)quinoline-3-carbonitrile] | 0.042 µM | 0.002 µM |  |  |
| N#Cc1cnc2c(Cl)cc(N[C@@H](c3cscn3)c3cn(CCN)nn3)cc2c1Nc1ccc(F)c(Cl)c1 [Example 359, (S)-6-(((1-(2-arninoethyl)-1H-1,2,3-triazol-4-yl)(thiazol-4-yl)methyl)-amino)-8-chloro-4-((3-chloro-4-fluorophenyl)amino)quinoline-3-carbonitrile] |  |  | 0.729 µM | 0.003 µM |
| N#CCCC(Nc1c(C#N)cnc2c(Cl)cc(N[C@@H](c3cn(C4CC4)nn3)c3csc4c3CCN(C3COC3)C4)cc12)c1ccccc1 (stereo partly drawn) [Example 83, 8-chloro-4-((3-cyano-1-phenylpropyl)amino)-6-(((RH 1-cyclopropyl-1H-1,2,3-triazol-4-yl)(6-(oxetan-3-yl)-4,5,6,7-tetrahydrothieno[2,3-c]pyridin-3-yl)methyl)amino)-quinoline-3-carbonitrile] |  |  | 1 µM | 0.942 µM |
| Cn1cc2cccc([C@H](Nc3cc(C#N)c4ncc(C#N)c(NCC(C)(C)C)c4c3)c3cn(C4(C(F)(F)F)CC4)nn3)c2n1 [Example 573, (S)-6-(((2-methyl-2H-indazol-7-yl)(1-(1-(trifluoromethyl)cyclopropyl)-1H-1,2,3-triazol-4-yl)methyl)amino)-4-(neopentylamino)quinoline-3,8-dicarbonitrile] | 0.751 µM | 0.066 µM |  |  |
| CC(C)(C)CNc1c(C#N)cnc2c(Cl)cc(N[C@H](c3cn([C@@H]4C[C@@H]4F)nn3)c3cccc4ncccc34)cc12 [Example 692, 8-chloro-6-(((SH l-((lR,2S)-2-fluorocyclopropyl)-1H-1,2,3-triazol-4-yl)(quinolin-5-yl)methyl)amino)-4-(neopentylamino)quinoline-3-carbonitrile] |  |  | 0.038 µM | 0.003 µM |
| Cn1nccc1[C@H](Nc1cc(Cl)c2ncc(C#N)c(NCC(C)(C)C)c2c1)c1cn(C2(C(F)F)CC2)nn1 [Example 665, (S)-8-chloro-6-(((1-(1-(difluoromethyl)cyclopropyl)-1H-1,2,3-triazol-4-yl)(1-methyl-1H-pyrazol-5-yl)methyl)amino)-4-(neopentylamino)quinoline-3-carbonitrile] | 0.198 µM | 0.006 µM |  |  |

From patent US11066414B2, “Cot modulators and methods of use thereof” (Gilead Sciences, Inc., priority 2015, dated 2021)
